# How the values were obtained:
# [1] = test system: Cp/Heph double knockout (DKO) mice; experiment: Survival (Kaplan-Meier) and ataxia of DKO mice, oral deferiprone; format: in vivo, mouse
# Text: FIG. 7 is a Kaplan-Meier survival curve for deferiprone treated and untreated DKO mice.
# (§1) In the following examples, double knockout (DKO) mice were used where the mice were genetically modified to generate a deficiency in the ferroxidase ceruloplasmin (Cp) and its homologue hephaestin (Heph). These mice develop age-related retinal degeneration due to retinal iron accumulation, as do humans. Since the knockout affects all tissues and organs, they also develop other symptoms of localized iron excess, with a simultaneous inability to adequately utilize the available iron for normal homeostasis, such as making new hemoglobin (they have low hematocrits). […]
# (§2) Oral Administration: DKO mice were given deferiprone in their drinking water at a concentration of (1 mg/ml). […] The animals were sacrificed at various time points that are known to represent significant retinal and neurological damage in untreated animals and the eyes of sacrificed animals were analyzed as noted above.
# (P<0.0001). The lifespan of the treated animals is an under-estimate, as these mice were sacrificed for iron quantification before they became sick. […]
# [2] = cited from earlier work
# [3] = test system: retinal iron; experiment: Perls' stain of retinal iron in DKO mice, oral deferiprone; format: in vivo; settings: 13 month old DKO mouse, PO 1 mg/ml in drinking water for 9 months, vs untreated DKO
# Text: FIG. 4 illustrates three Perls' stains of 7 and 13 month old untreated DKO mice retinas (FIGS. 4A and 4B, respectively) and of a treated 13 month old DKO mouse (FIG. 4C). The following abbreviations appear in the Figures: RPE, retinal pigment epithelium; ONL, outer nuclear layer; OPL, outer plexiform layer; IPL, inner plexiform layer; GCL, ganglion cell layer. Scale bar: 50 μm.
# Eye Drop Administration: Beginning at age 5 months (when elevated retinal iron levels are detected), mice were given deferiprone eye drops (10 mg/ml) three times a day in one eye and control water eye drops in the other eye for two months, with the last drop given 2 h prior to sacrifice. […] The number and length of retinal pigment epithelial (RPE) cell hypertrophy and photoreceptor atrophy areas were quantified in deferiprone-treated vs. water-treated control eyes. The intensity of Perls' stain in the ciliary body, retina and RPE were assessed in digital photomicrographs quantifying pixel density.
# as §2, with “above. […]” for “above.”
# [4] = test system: eye of Hra:(NZW)SPF rabbits; experiment: Sensitivity testing of eye drops: ocular irritation/corrosion (Draize, sodium fluorescein); format: in vivo, rabbit
# Procedure: The ocular irritation/corrosion potential of the product was assessed by instilling approximately 0.1 mL at a concentration of about 13 mg/mL into the everted lower lid of the right eye of 3 male Hra:(NZW)SPF rabbits; the left eye served as the untreated control. Approximately 24 hours after instillation, the treated eyes were examined for corneal injury and washed using room-temperature physiological saline.
# [5] = test system: transferrin receptor messenger ribonucleic acid (TfR mRNA); experiment: TfR mRNA by qPCR in RPE/choroid after deferiprone eye drops; format: in vivo, mouse; settings: eye drops 10 mg/ml three times a day for two months, right eye treated vs left eye control
# Procedure: FIG. 3 is a graph illustrating the amount of transferrin receptor messenger ribonucleic acid (TfR mRNA) in the RPE/choroid from a treated eye and an untreated eye. The error bars represent SD of 3 PCR reactions using the same batch of mRNA template.
# (§3) Eye Drop Administration: Beginning at age 5 months (when elevated retinal iron levels are detected), mice were given deferiprone eye drops (10 mg/ml) three times a day in one eye and control water eye drops in the other eye for two months, with the last drop given 2 h prior to sacrifice. Eyes were fixed in 2% paraformaldehyde/2% glutaraldehyde then sectioned for analysis of morphology (following staining with Toluidine Blue) and iron content (following staining with Perls' Prussian Blue). The number and length of retinal pigment epithelial (RPE) cell hypertrophy and photoreceptor atrophy areas were quantified in deferiprone-treated vs. water-treated control eyes. The intensity of Perls' stain in the ciliary body, retina and RPE were assessed in digital photomicrographs quantifying pixel density.
# The mouse had the right eye (OD) treated with deferiprone topically (in the form of the eye drops, 10 mg/ml) three times a day for two months, whereas the left eye (OS) was used as an internal control. The last administration was given 2 h prior to sacrifice. Relative quantification of TfR mRNA was detected by qPCR. […]
# [6] = test system: transferrin Receptor (TfR) mRNA; experiment: TfR mRNA by qPCR in retina and RPE/choroid of wild type mice, oral deferiprone; format: in vivo, mouse; settings: 1 mg/ml in drinking water PO for 11 days, n=4, vs untreated
# Procedure: FIG. 2 is two graphs showing relative quantification of transferrin Receptor (TfR) mRNA levels in the retinas and retinal pigment epithelia (RPE)/choroids of deferiprone treated and untreated wild type mice in retinas (FIG. 2A) and in RPE/choroids (FIG. 2B). The treated mice (n=4) were given deferiprone for 11 days PO (1 mg/ml in the drinking water). […] Relative quantification of TfR expression is also shown for the RPE/choroids (See FIG. 2B) of treated in comparison to untreated animals.
# [7] = Hematocrit in DKO mice, oral deferiprone; format: in vivo, mouse
# Text: as §1, with “hematocrits). These animals also develop neurological deficits, including ataxia and die at an early age, typically 6-9 months, although some may survive to 12 or 13 months with significant impaired ability to function The retinas of these Cp/Heph deficient mice accumulate iron in the RPE and photoreceptor outer segments in an age-dependent manner, then develop RPE and photoreceptor degeneration with subretinal neovascularization and sub-RPE wide-spaced collagen deposits.” for “hematocrits).”
# as §2, with “above. […]” for “above.”
# [8] = test system: Cp/Heph double knockout (DKO) mice; experiment: Retinal histology of Cp/Heph DKO mice given oral deferiprone in drinking water; format: in vivo, mouse
# Text: In the following examples, double knockout (DKO) mice were used where the mice were genetically modified to generate a deficiency in the ferroxidase ceruloplasmin (Cp) and its homologue hephaestin (Heph). These mice develop age-related retinal degeneration due to retinal iron accumulation, as do humans. Since the knockout affects all tissues and organs, they also develop other symptoms of localized iron excess, with a simultaneous inability to adequately utilize the available iron for normal homeostasis, such as making new hemoglobin (they have low hematocrits). These animals also develop neurological deficits, including ataxia and die at an early age, typically 6-9 months, although some may survive to 12 or 13 months with significant impaired ability to function The retinas of these Cp/Heph deficient mice accumulate iron in the RPE and photoreceptor outer segments in an age-dependent manner, then develop RPE and photoreceptor degeneration with subretinal neovascularization and sub-RPE wide-spaced collagen deposits. Cp/Heph DKO mice develop retinal, brain, liver, and heart iron overload with iron deficiency anemia. In untreated DKOs, iron gets trapped in the tissues and is not returned to the blood, leading to iron deficiency anemia. There is an age-dependent tissue iron buildup with retinal and brain degeneration.
# as §3
# Oral Administration: DKO mice were given deferiprone in their drinking water at a concentration of (1 mg/ml). The mice typically drink 5 ml of water a day and weigh 30 g. Mice began drinking deferiprone/water at age 7 months since that is the time such mice normally develop the retinal changes consistent with AMD. The animals were sacrificed at various time points that are known to represent significant retinal and neurological damage in untreated animals and the eyes of sacrificed animals were analyzed as noted above.
compound,measurement,setting,value
Cc1c(O)c(=O)ccn1C [deferiprone],ataxia,"[1]; DKO mice, 1 mg/ml in drinking water, 2 mice at 14 months and 2 at 12 months",some mild ataxia
same,median survival,"[1]; treated DKO mice, LogRank test, untreated 7 months, P<0.0001",13 months
same,half life,[2]; humans,about 2 hours
same,"agranulocytosis, share of patients","[2]; thalassemia patients, oral doses 75 to 100 mg/kg/day",about 1%
same,retinal iron (Perls' stain),[3],decreased retinal iron
same,"eye irritation, Draize score","[4]; 0.1 mL of about 13 mg/mL into right eye of 3 male rabbits, 1, 24, 48 and 72 hours after instillation",0
same,"corneal injury, sodium fluorescein test","[4]; about 24 hours post dose, about 13 mg/mL, rabbits",no injury to the cornea
same,TfR mRNA in RPE/choroid (relative quantification),[5],siqnificant TfR mRNA increase
same,"TfR mRNA levels in retinas (relative quantification, standardized to 18S RNA)",[6],significant up regulation of TfR mRNA levels
same,TfR expression in RPE/choroids (relative quantification),[6]; P<0.05,significant difference
same,"hematocrit, mean value","[7]; deferiprone-treated DKO mice n=7, untreated mean 24.6%, P<0.05",36.7%
same,hematocrit at time of sacrifice,"[7]; treated DKO mice 12 and 14 months old, 1 mg/ml in drinking water 5-7 months, untreated 19-26%",30-50%
same,retina appearance (toluidine blue plastic sections),"[8]; 14 month Cp/Heph knockout, oral deferiprone for 5 months, FIG. 1",appears normal except for a few mildly hypertrophic RPE cells
same,retinal degeneration and damage,"[8]; DKO mice 12-14 months old, deferiprone 1 mg/ml in drinking water for 5-7 months",almost no retinal degeneration and damage
same,retinal tissue histology,"[8]; DKO mice, deferiprone 1 mg/ml PO in drinking water for 6-9 months, FIG. 5",near normal tissue
same,"areas of RPE hypertrophy, share of the retina involved","[8]; most severely affected regions, DKO mice, deferiprone 1 mg/ml PO for 6-9 months, untreated more than 90%",< 10%

# — patent US20130023569A1, “Use of Deferiprone for Treatment and Prevention of Iron-Related Eye Disorders” (THE TRUSTEES OF THE UNIVERSITY OF PENNSYLVANIA, priority 2009, published 2013)
